# In patent US12389911B2, “Benzimidazole compound or salt thereof, agricultural and horticultural insecticidal and acaricidal agent containing said compound, and method for using same” (NIHON NOHYAKU CO., LTD., priority 2019, dated 2025):
# System: Two-spotted spider mite (Tetranychus urticae)
# Assay: Acaricidal action on two-spotted spider mite (kidney bean leaf disk spray)
# Assay type: in vivo
# Settings: 500 ppm, adult females, 25° C., two days after treatment
# Experimental: Acaricidal Action on Two-Spotted Spider Mite (Tetranychus urticae)
# Leaf disk having a diameter of 2 cm was prepared by leaves of kidney bean, and the leaf disk was placed on the wetted filter paper. Adult hens of two-spotted spider mite were inoculated on the wetted filter paper, and then 50 ml of an agrochemical dispersion, prepared by diluting a formulation containing the benzimidazole compound represented by the general formula (1) of the present invention or salt thereof as an active ingredient to adjust each of the concentrations to 500 ppm, was sprayed on turntable uniformly. After the spraying, it was allowed to stand in a thermostatic chamber at 25° C. Two days after the treatment of an agrochemical dispersion, the dead mites were counted, the corrected mortality rate was calculated according to the formula shown below, and the acaricidal efficacy was evaluated according to the criteria of Test Example 2. This test was conducted in duplicate using 10 adult hens of two-spotted spider per plot. Corrected mortality(%)=(Number of dead mites in a non-treatment plot−Number of dead mites in a treatment plot)/(Number of dead mites in a non-treatment plot)×100 [Expression 4]
row,Compound,"acaricidal efficacy (corrected mortality rate), activity level"
1,CCCCCc1cn(-c2nc3ccccc3n2S(=O)(=O)CC)cn1 [Compound 1-2],D or higher
2,CCCCCCCCc1cn(-c2nc3ccccc3n2S(C)(=O)=O)cn1 [Compound 1-3],D or higher
3,CCS(=O)(=O)n1c(-n2cnc(C(C)(C)C)c2)nc2ccccc21 [Compound 1-5],D or higher
4,CCS(=O)(=O)n1c(-n2cnc(C#CC3CC3)c2)nc2ccccc21 [Compound 1-7],D or higher
5,CCS(=O)(=O)n1c(-n2cnc(CCc3ccc(C(C)(C)C)cc3)c2)nc2ccccc21 [Compound 1-10],D or higher
6,CCS(=O)(=O)n1c(-n2cnc(CCc3ccc(Br)cc3)c2)nc2ccccc21 [Compound 1-14],D or higher
7,CCS(=O)(=O)n1c(-n2cnc(COc3ccc(C(F)(F)F)cc3)c2)nc2ccccc21 [Compound 1-16],D or higher
8,CCS(=O)(=O)n1c(-n2cnc(COc3ccc(OC(F)(F)F)cc3)c2)nc2ccccc21 [Compound 1-17],D or higher
9,CCS(=O)(=O)n1c(-n2cnc(C#Cc3ccccc3)c2)nc2ccccc21 [Compound 1-18],D or higher
10,CCS(=O)(=O)n1c(-n2cnc(I)c2)nc2ccccc21 [Compound 1-20],D or higher
11,CCS(=O)(=O)n1c(-n2cnc(C(F)(F)F)c2)nc2ccccc21 [Compound 1-21],D or higher
12,CCS(=O)(=O)n1c(-n2cnc(C(F)(F)C(F)(F)C(F)(F)C(F)(F)C(F)(F)C(F)(F)F)c2)nc2ccccc21 [Compound 1-28],D or higher
13,CCS(=O)(=O)n1c(-n2cnc(C#N)c2)nc2ccccc21 [Compound 1-31],D or higher
14,CCS(=O)(=O)n1c(-n2cnc(C(=O)OC(C)(C)C)c2)nc2ccccc21 [Compound 1-33],D or higher
15,CCS(=O)(=O)n1c(-n2cnc(C(=O)OC(C)(C)c3ccccc3)c2)nc2ccccc21 [Compound 1-36],D or higher
16,CCCCCCCCc1cnn(-c2nc3ccccc3n2S(=O)(=O)CC)c1 [Compound 2-2],D or higher
17,CCS(=O)(=O)n1c(-n2cc(CCc3ccc(C(F)(F)F)cc3)cn2)nc2ccccc21 [Compound 2-4],D or higher
18,CCS(=O)(=O)n1c(-n2cc(CCc3ccc(F)cc3)c(C(F)(F)F)n2)nc2ccccc21 [Compound 2-5],D or higher
19,CCS(=O)(=O)n1c(-n2cc(CCc3ccc(OC)cc3)c(C(F)(F)F)n2)nc2ccccc21 [Compound 2-6],D or higher
20,CCCCCCC#Cc1cnn(-c2nc3ccccc3n2S(=O)(=O)CC)c1 [Compound 2-7],D or higher
21,CCS(=O)(=O)n1c(-n2cc(C#Cc3ccc(F)cc3)c(C(F)(F)F)n2)nc2ccccc21 [Compound 2-9],D or higher
22,CCS(=O)(=O)n1c(-n2cc(Br)c(C(F)(F)F)n2)nc2ccccc21 [Compound 2-14],D or higher
23,CCS(=O)(=O)n1c(-n2cc(I)c(C(F)(F)F)n2)nc2ccccc21 [Compound 2-16],D or higher
24,CCS(=O)(=O)n1c(-n2nc(C(F)(F)F)c(Br)c2C)nc2ccccc21 [Compound 2-18],D or higher
25,CCS(=O)(=O)n1c(-n2cc(Cc3ccccc3)c(C(F)(F)F)n2)nc2ccccc21 [Compound 2-22],D or higher
26,CCS(=O)(=O)n1c(-n2cc(C(C)=O)c(C(F)(F)F)n2)nc2ccccc21 [Compound 2-25],D or higher
27,CCS(=O)(=O)n1c(-n2cc(C(=O)N(C)OC)c(C(F)(F)F)n2)nc2ccccc21 [Compound 2-30],D or higher
28,CCS(=O)(=O)n1c(-n2cc(C(=O)SC(C)(C)C)c(C(F)(F)F)n2)nc2ccccc21 [Compound 2-31],D or higher

row,Compound,"acaricidal efficacy (corrected mortality rate), activity level"
1,CCOC(=O)c1cn(-c2nc3ccccc3n2S(=O)(=O)CC)nc1C(F)F [Compound 2-33],D or higher
2,CCS(=O)(=O)n1c(-n2cc(I)c(Br)n2)nc2ccccc21 [Compound 2-35],D or higher
3,CCOC(=O)/C=C/c1ccn(-c2nc3ccccc3n2S(=O)(=O)CC)n1 [Compound 2-36],D or higher
4,CCCCOc1nn(-c2nc3ccccc3n2S(=O)(=O)CC)cc1Br [Compound 2-37],D or higher
5,CCOC(=O)c1cn(-c2nc3ccccc3n2S(=O)(=O)CC)nc1OCC(F)(F)C(F)(F)F [Compound 2-41],D or higher
6,CCS(=O)(=O)n1c(-n2cc(Br)c(OC(F)F)n2)nc2ccccc21 [Compound 2-42],D or higher
7,CCS(=O)(=O)n1c(-n2cc(Cl)c(C(=O)OC(C)(C)C)n2)nc2ccccc21 [Compound 2-44],D or higher
8,CCS(=O)(=O)n1c(-n2cc(Br)c(C(=O)OC(C)(C)C)n2)nc2ccccc21 [Compound 2-45],D or higher
9,CCS(=O)(=O)n1c(-n2cc(C(=O)OC(C)(C)C)c(Cl)n2)nc2ccccc21 [Compound 2-47],D or higher
10,CCS(=O)(=O)n1c(-n2cc(C(=O)OC(C)(C)C)c(Br)n2)nc2ccccc21 [Compound 2-48],D or higher
11,CCS(=O)(=O)n1c(-n2cc(C(=O)OC(C)(C)C)c(C3CC3)n2)nc2ccccc21 [Compound 2-50],D or higher
12,CCS(=O)(=O)n1c(-n2cc(C(=O)OC(C)(C)C)c(OCC(F)(F)C(F)(F)F)n2)nc2ccccc21 [Compound 2-52],D or higher
13,CCS(=O)(=O)n1c(-n2cc([S+]([O-])C(C)C)c(C(F)(F)F)n2)nc2ccccc21 (stereo not shown) [Compound 2-55],D or higher
14,CCS(=O)(=O)n1c(-n2cc(S(=O)(=O)C(C)C)c(C(F)(F)F)n2)nc2ccccc21 [Compound 2-56],D or higher
15,CCS(=O)(=O)n1c(-n2cc(C(=O)OC(C)(C)C)c(C(C)C)n2)nc2ccccc21 [Compound 2-57],D or higher
16,CCS(=O)(=O)n1c(-n2cc(C(=O)OC(C)(C)C)c(C(C)(C)C)n2)nc2ccccc21 [Compound 2-58],D or higher
17,CCS(=O)(=O)n1c(-n2cc(C(=O)c3ccccc3)c(C(F)(F)F)n2)nc2ccccc21 [Compound 2-59],D or higher
18,CCS(=O)(=O)n1c(-n2cc(CCC(=O)OC(C)(C)C)c(C(F)(F)F)n2)nc2ccccc21 [Compound 2-61],D or higher
19,CCS(=O)(=O)n1c(-n2cc(C(=O)OC(C)(C)C)c(C(=O)OC(C)(C)C)n2)nc2ccccc21 [Compound 2-62],D or higher
20,CCCc1nn(-c2nc3ccccc3n2S(=O)(=O)CC)cc1C(=O)OC(C)(C)C [Compound 2-72],D or higher
21,CCOc1nn(-c2nc3ccccc3n2S(=O)(=O)CC)cc1C(=O)OC(C)(C)C [Compound 2-73],D or higher
22,CCCOc1nn(-c2nc3ccccc3n2S(=O)(=O)CC)cc1C(=O)OC(C)(C)C [Compound 2-74],D or higher
23,CCS(=O)(=O)n1c(-n2cc(C(=O)OC(C)(C)C)c(OCC(F)(F)F)n2)nc2ccccc21 [Compound 2-76],D or higher
24,CCS(=O)(=O)n1c(-n2cc(C(=O)OC(C)(C)C)c(OCC(F)F)n2)nc2ccccc21 [Compound 2-77],D or higher
25,CCS(=O)(=O)n1c(-n2cc(C(=O)OC(C)(C)C)c(OCC(F)(F)C(F)F)n2)nc2ccccc21 [Compound 2-78],D or higher
26,CCS(=O)(=O)n1c(-n2cc(C(=O)OC)c(C(C)(C)C)n2)nc2ccccc21 [Compound 2-79],D or higher
27,CCOC(=O)c1cn(-c2nc3ccccc3n2S(=O)(=O)CC)nc1/C=C/C1CC1 [Compound 2-80],D or higher
